Here are results for 5 molecules from patent US4328334A, “11-Aza-10-deoxo-10-dihydroerythromycin A and derivatives thereof as well as a process for their preparation” (PLIVA Pharmaceutical and Chemical Works, priority 1979, dated 1982).

Converted amounts (≈) assume the structure as drawn. Like-named read-outs stand apart in the source and are kept apart here.

Data set [1] has as its system Staphylococcus aureus ATCC 6538-P. Description: in vitro minimum inhibitory concentration, Staphylococcus aureus ATCC 6538-P. The format is cell-based.
For data set [2], the system named is Streptococcus faecalis ATCC 8043. Description: in vitro minimum inhibitory concentration, Streptococcus faecalis ATCC 8043. The note with it: Enterococcus faecalis. The format is cell-based.
In data set [3] the test system is Staphylococcus epidermidis ATCC 12228. Put plainly: in vitro minimum inhibitory concentration, Staphylococcus epidermidis ATCC 12228. The format is cell-based.
Data set [4] has as its system Sarcina lutea ATCC 9341. Description: in vitro minimum inhibitory concentration, Sarcina lutea ATCC 9341. Type of data set: cell-based. The note with it: Micrococcus luteus, ATCC9341, read-out: minimum inhibitory concentrations (MIC).
Data set [5] deals with Bacillus cereus var. mycoides ATCC 11778. Put plainly: microbe, parasite or virus in culture. The format is cell-based. The note with it: ATCC11778, read-out: minimum inhibitory concentrations (MIC).
The subject of data set [6] is Bacillus subtilis ATCC 6633. Description: in vitro minimum inhibitory concentration, Bacillus subtilis ATCC 6633. The format is cell-based.
Data set [7] relates to Micrococcus flavus ATCC 10240. Put plainly: in vitro minimum inhibitory concentration, Micrococcus flavus ATCC 10240. Type of data set: cell-based.
For data set [8], the system named is Shigella flexneri II-1819/C. Description: in vitro minimum inhibitory concentration, Shigella flexneri II-1819/C. Type of data set: cell-based. As to conditions: II1819/C, read-out: minimum inhibitory concentrations (MIC). As for the experimental part:
In order to examine the antibacterial action, some new compounds were tested in vitro on a series of gram-positive and gram-negative micro-organisms. The results are shown in Table 1 as minimum inhibitory concentrations (MIC) in mcg/ml in comparision with erythromycin A erythromycin A oxime.

Data set [9] relates to Corynebacterium xerosis NCTC 9755. Put plainly: in vitro minimum inhibitory concentration, Corynebacterium xerosis NCTC 9755. Type of data set: cell-based.
In data set [10] the test system is Pseudomonas aeruginosa NCTC 10490. Put plainly: in vitro minimum inhibitory concentration, Pseudomonas aeruginosa NCTC 10490. The format is cell-based.
The test system of data set [11] is Staphylococcus aureus ATCC 6538-P. Description: stability in acid medium: MIC after exposure to 1 N HCl. Type of data set: cell-based. As to conditions: ATCC6538, pH 1.2, Staphylococcus aureus ATCC 6538-P.
Data set [12] relates to Brucella bronchiseptica ATCC 4617. Description: microbe, parasite or virus in culture. The format is cell-based. The note with it: Bordetella bronchiseptica, ATCC4617, read-out: minimum inhibitory concentrations (MIC).
The test system of data set [13] is Klebsiella pneumoniae ATCC 10031. Description: in vitro minimum inhibitory concentration, Klebsiella pneumoniae ATCC 10031. Type of data set: cell-based.
Data set [14] has as its system Salmonella panama. Put plainly: in vitro minimum inhibitory concentration, Salmonella panama. The format is cell-based. As to conditions: Salmonella enterica, read-out: minimum inhibitory concentrations (MIC).
Data set [15] deals with Escherichia coli ATCC 10536. Description: in vitro minimum inhibitory concentration, Escherichia coli ATCC 10536. Type of data set: cell-based. As to conditions: ATCC10536, read-out: minimum inhibitory concentrations (MIC).
The nature of data set [16]: acute i.v. toxicity in albino mice (Litchfield-Wilcoxon). As to conditions: mouse, in vivo, iv; acute i.v., albino mice.
The nature of data set [17]: pKb in dimethyl formamide-water. Type of data set: physicochemical. The note with it: dmf (66% v/v)-water; dimethyl formamide (66% v/v)-water.
The mark [18] stands for this setting: ATCC6538, in vitro, Staphylococcus aureus ATCC 6538-P, read-out: minimum inhibitory concentrations (MIC).
Where [19] appears, read: ATCC8043, in vitro, Streptococcus faecalis ATCC 8043, read-out: minimum inhibitory concentrations (MIC).
Setting [20] is: ATCC12228, in vitro, Staphylococcus epidermidis ATCC 12228, read-out: minimum inhibitory concentrations (MIC).
The mark [21] stands for this setting: ATCC6633, in vitro, Bacillus subtilis ATCC 6633, read-out: minimum inhibitory concentrations (MIC).
[22] abbreviates: ATCC10240, in vitro, Micrococcus flavus ATCC 10240, read-out: minimum inhibitory concentrations (MIC).
The mark [23] stands for this setting: exposure time 1/2 hour, 1 N HCl.

Regarding `CC[C@H]1OC(=O)[C@H](C)[C@@H](O[C@H]2C[C@@](C)(OC)[C@@H](O)[C@H](C)O2)[C@H](C)[C@@H](O[C@@H]2O[C@H](C)C[C@H](N(C)C)[C@H]2O)[C@](C)(O)C[C@@H](C)CN(S(=O)(=O)c2ccc(C)cc2)[C@H](C)[C@@H](O)[C@]1(C)O` [Compound VIII, N-(4-methyl-benzenesulfonyl)-11-aza-10-deoxo-10-dihydroerythromycin A], the MIC was 100 µg/mL (≈ 112 µM) in data set [1] (setting [18]); 20 µg/mL (≈ 22.5 µM) in data set [2] (setting [19]); 100 µg/mL (≈ 112 µM) in [3] (setting [20]); 50 µg/mL (≈ 56.2 µM) in data set [4]; 50 µg/mL (≈ 56.2 µM) in data set [5]; 100 µg/mL (≈ 112 µM) in [6] (setting [21]). Also, in [7] (setting [22]), the MIC came to 20 µg/mL (≈ 22.5 µM).
As for `CC[C@H]1OC(=O)[C@H](C)[C@@H](O[C@H]2C[C@@](C)(OC)[C@@H](O)[C@H](C)O2)[C@H](C)[C@@H](O[C@@H]2O[C@H](C)C[C@H](N(C)C)[C@H]2O)[C@](C)(O)C[C@@H](C)C(=O)[C@H](C)[C@@H](O)[C@]1(C)O` [E, erythromycin A], the MIC in [1] (Staphylococcus aureus, ATCC6538, read-out: minimum inhibitory concentrations (MIC)) was determined as 0.5 µg/mL (≈ 0.681 µM); in [8] it was 25 µg/mL (≈ 34.1 µM); in data set [2] (ATCC8043, read-out: minimum inhibitory concentrations (MIC)), 0.05 µg/mL (≈ 0.0681 µM); in [9] (Corynebacterium xerosis, NCTC9755, read-out: minimum inhibitory concentrations (MIC)), 0.1 µg/mL (≈ 0.136 µM); in [10] (Pseudomonas aeruginosa, NCTC10490, read-out: minimum inhibitory concentrations (MIC)) it was 50 µg/mL (≈ 68.1 µM); in data set [3] (Staphylococcus epidermidis, ATCC12228, read-out: minimum inhibitory concentrations (MIC)) it was 0.1 µg/mL (≈ 0.136 µM). In addition, the MIC in [11] (exposure time 0 hours) is 0.5 µg/mL (≈ 0.681 µM); in data set [11] (setting [23]) it was 7.5 µg/mL (≈ 10.2 µM); in data set [11] (exposure time 1 hour, 1 N HCl), 10 µg/mL (≈ 13.6 µM); in data set [11] (exposure time 2 hours, 1 N HCl), 10 µg/mL (≈ 13.6 µM); in data set [11] (exposure time 3 hours, 1 N HCl), 10 µg/mL (≈ 13.6 µM); in [11] (exposure time 6 hours, 1 N HCl) it was 20 µg/mL (≈ 27.3 µM). Also, the MIC in [4] turned out to be 0.05 µg/mL (≈ 0.0681 µM); in data set [12], 1 µg/mL (≈ 1.36 µM); in data set [5], 0.1 µg/mL (≈ 0.136 µM); in [6] (Bacillus subtilis, ATCC6633, read-out: minimum inhibitory concentrations (MIC)), 0.05 µg/mL (≈ 0.0681 µM); in [7] (Micrococcus flavus, ATCC10240, read-out: minimum inhibitory concentrations (MIC)) it was 0.05 µg/mL (≈ 0.0681 µM); in data set [13] (Klebsiella pneumoniae, ATCC10031, read-out: minimum inhibitory concentrations (MIC)), 5 µg/mL (≈ 6.81 µM). Also, the MIC in data set [14] worked out at 50 µg/mL (≈ 68.1 µM); in [15] it was 25 µg/mL (≈ 34.1 µM).
Consider `CC[C@H]1OC(=O)[C@H](C)[C@@H](O[C@H]2C[C@@](C)(OC)[C@@H](O)[C@H](C)O2)[C@H](C)[C@@H](O[C@@H]2O[C@H](C)C[C@H](N(C)C)[C@H]2O)[C@](C)(O)C[C@@H](C)C(=NO)[C@H](C)[C@@H](O)[C@]1(C)O` [EO, erythromycin A oxime, reference compound], for which the MIC turned out to be 0.5 µg/mL (≈ 0.668 µM) in data set [1] (setting [18]); 50 µg/mL (≈ 66.8 µM) in data set [8]; 0.05 µg/mL (≈ 0.0668 µM) in data set [2] (setting [19]); 0.1 µg/mL (≈ 0.134 µM) in data set [9] (NCTC9755, in vitro, Corynebacterium xerosis NCTC 9755, read-out: minimum inhibitory concentrations (MIC)); 50 µg/mL (≈ 66.8 µM) in [10] (NCTC10490, in vitro, Pseudomonas aeruginosa NCTC 10490, read-out: minimum inhibitory concentrations (MIC)); 0.1 µg/mL (≈ 0.134 µM) in data set [3] (setting [20]). In addition, the MIC turned out to be 0.1 µg/mL (≈ 0.134 µM) in data set [11] (exposure time 0 hours); 0.1 µg/mL (≈ 0.134 µM) in [11] (setting [23]); 0.1 µg/mL (≈ 0.134 µM) in [11] (exposure time 1 hour, 1 N HCl); 0.5 µg/mL (≈ 0.668 µM) in data set [11] (exposure time 2 hours, 1 N HCl); 0.5 µg/mL (≈ 0.668 µM) in data set [11] (exposure time 3 hours, 1 N HCl); 0.5 µg/mL (≈ 0.668 µM) in [11] (exposure time 6 hours, 1 N HCl). Moreover, the MIC worked out at 0.05 µg/mL (≈ 0.0668 µM) in data set [4]; 1 µg/mL (≈ 1.34 µM) in [12]; 0.1 µg/mL (≈ 0.134 µM) in [5]; 0.1 µg/mL (≈ 0.134 µM) in data set [6] (setting [21]); 0.1 µg/mL (≈ 0.134 µM) in data set [7] (setting [22]); 5 µg/mL (≈ 6.68 µM) in [13] (ATCC10031, in vitro, Klebsiella pneumoniae ATCC 10031, read-out: minimum inhibitory concentrations (MIC)). For the same molecule, the MIC in data set [14] (in vitro, Salmonella panama) was found to be 50 µg/mL (≈ 66.8 µM); in data set [15], 25 µg/mL (≈ 33.4 µM). Also, in data set [16], the LD50 was 74 mg/kg.
As for `CC[C@H]1OC(=O)[C@H](C)[C@@H](O[C@H]2C[C@@](C)(OC)[C@@H](O)[C@H](C)O2)[C@H](C)[C@@H](O[C@@H]2O[C@H](C)C[C@H](N(C)C)[C@H]2OC(C)=O)[C@](C)(O)C[C@@H](C)CN(C(C)=O)[C@H](C)[C@@H](O)[C@]1(C)O` [Example 5, 2',N-diacetyl-11-aza-10-deoxo-10-dihydroerythromycin A], the pKa in [17] is 6.7.
On to `CCC(=O)O[C@H]1[C@H](O[C@@H]2[C@@H](C)[C@H](O[C@H]3C[C@@](C)(OC)[C@@H](O)[C@H](C)O3)[C@@H](C)C(=O)O[C@H](CC)[C@@](C)(O)[C@H](O)[C@@H](C)N(C(=O)CC)C[C@H](C)C[C@@]2(C)O)O[C@H](C)C[C@@H]1N(C)C` [Example 6, 2',N-dipropionyl-11-aza-10-deoxo-10-dihydroerythromycin A], for which the pKa in data set [17] came out at 6.7.

A word on the LD50: it is the dose at which mortality reaches 50%. High values mean lower toxicity, low ones greater toxicity. The term pKa denotes the pH at which an ionisable group is half protonated. A high value points to a group that holds its proton tightly.
